Where two headings read alike, the source gives them in different places.
What was measured:
FGFR4 = target: T1, FGFR4 (Homo sapiens, UniProt P22455); assay: Eurofins kinase selectivity profile, FGFR4; assay type: biochemical
T1 construct: purchased Eurofins (Celle Lévescault)
Protocol: (§1) Subsequently, to ascertain whether the high potency of compound 11 was specific for MK2, an additional 380 human recombinant protein kinases were screened.
(§2) To assess the impact of various compounds on MK2 kinase activity, we utilized the ADP‐Glo Assay Kit (Promega) following the manufacturer's instructions. Luminescence measurements were taken using a SpectraMax Paradigm reader. The inhibition percentage was calculated using the following formula: ((specific signalDMSO control − specific signal inhibitor)/(specific signalDMSO control)) × 100%. The IC50 values were determined employing dose–response curve fitting via Prism (Graph Pad). Additionally, Eurofins company (Celle Lévescault) conducted the analysis on compound 11’s inhibitory activity against 380 other human recombinant kinases at various concentrations.

p38 [1] = target: T2, p38 (Homo sapiens, UniProt O15264); assay: Eurofins kinase selectivity profile, p38; assay type: biochemical; details: p38-delta/SAPK4(h), read-out: Inhibition rate (%)
T2 construct: purchased Eurofins (Celle Lévescault)
T2 sequence (O15264 1-365): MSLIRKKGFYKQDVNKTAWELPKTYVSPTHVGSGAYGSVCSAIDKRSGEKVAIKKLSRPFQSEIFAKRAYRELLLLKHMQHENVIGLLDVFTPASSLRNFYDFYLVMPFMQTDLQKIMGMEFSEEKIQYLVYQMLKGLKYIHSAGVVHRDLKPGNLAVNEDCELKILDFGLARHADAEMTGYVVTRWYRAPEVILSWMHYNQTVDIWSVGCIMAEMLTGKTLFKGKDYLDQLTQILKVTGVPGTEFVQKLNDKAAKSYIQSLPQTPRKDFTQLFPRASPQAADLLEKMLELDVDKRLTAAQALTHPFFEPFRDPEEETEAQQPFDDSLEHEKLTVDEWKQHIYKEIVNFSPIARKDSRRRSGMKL
Protocol: as §1, §2

p38 [2] = target: T3, p38 (Homo sapiens, UniProt P53778); assay: Eurofins kinase selectivity profile, p38; assay type: biochemical; details: p38-gamma/SAPK3(h), read-out: Inhibition rate (%)
T3 construct: purchased Eurofins (Celle Lévescault)
T3 sequence (P53778 1-367): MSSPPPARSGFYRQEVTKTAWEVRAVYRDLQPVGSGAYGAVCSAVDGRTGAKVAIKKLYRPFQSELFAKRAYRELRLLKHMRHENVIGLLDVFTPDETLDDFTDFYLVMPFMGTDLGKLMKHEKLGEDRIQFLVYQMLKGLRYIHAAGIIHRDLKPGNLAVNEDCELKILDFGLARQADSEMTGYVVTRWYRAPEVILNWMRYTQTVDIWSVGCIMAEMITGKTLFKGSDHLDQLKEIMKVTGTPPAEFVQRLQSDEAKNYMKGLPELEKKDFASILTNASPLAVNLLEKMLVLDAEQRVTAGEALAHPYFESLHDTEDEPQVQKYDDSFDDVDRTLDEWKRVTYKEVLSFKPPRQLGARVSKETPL
Protocol: as §1, §2

p38 [3] = target: T4, p38 (Homo sapiens, UniProt Q15759); assay: Eurofins kinase selectivity profile, p38; assay type: biochemical; details: p38-beta/SAPK2b(h), read-out: Inhibition rate (%)
T4 construct: purchased Eurofins (Celle Lévescault)
T4 sequence (Q15759 whole entry): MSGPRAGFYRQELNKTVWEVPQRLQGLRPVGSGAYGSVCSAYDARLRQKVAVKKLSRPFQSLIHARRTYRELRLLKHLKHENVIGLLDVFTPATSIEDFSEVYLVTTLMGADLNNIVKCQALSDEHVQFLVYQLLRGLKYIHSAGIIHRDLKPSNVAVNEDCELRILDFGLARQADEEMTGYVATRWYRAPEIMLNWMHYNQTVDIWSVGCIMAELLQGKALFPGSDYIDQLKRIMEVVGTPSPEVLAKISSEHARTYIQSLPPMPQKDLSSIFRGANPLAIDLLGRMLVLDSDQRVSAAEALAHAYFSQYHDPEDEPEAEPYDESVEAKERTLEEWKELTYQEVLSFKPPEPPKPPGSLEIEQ
Protocol: as §1, §2

p38 [4] = target: T5, p38 (Homo sapiens, UniProt Q16539); assay: Eurofins kinase selectivity profile, p38; assay type: biochemical
T5 construct: purchased Eurofins (Celle Lévescault)
T5 sequence (Q16539 2-360): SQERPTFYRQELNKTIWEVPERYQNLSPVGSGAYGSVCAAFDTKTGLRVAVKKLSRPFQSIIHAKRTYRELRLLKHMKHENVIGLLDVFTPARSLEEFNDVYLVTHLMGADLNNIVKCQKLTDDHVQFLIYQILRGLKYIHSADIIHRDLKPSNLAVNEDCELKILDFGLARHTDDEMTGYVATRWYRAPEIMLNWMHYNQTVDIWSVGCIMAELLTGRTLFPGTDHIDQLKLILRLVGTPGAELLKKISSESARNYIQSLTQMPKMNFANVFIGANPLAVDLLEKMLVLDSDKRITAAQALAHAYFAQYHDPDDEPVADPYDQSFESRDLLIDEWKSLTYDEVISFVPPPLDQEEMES
Protocol: as §1, §2

p38 [5] = assay: Eurofins kinase selectivity profile, p38; assay type: biochemical, human
Protocol: as §1, §2

VEGF mRNA in THP-1 cells = assay: RT-PCR of VEGF in IL-4/IL-13 stimulated THP-1 cells; assay type: cell-based, human; details: IL-4/IL-13, 12 h
Text: (§3) Following this line of investigation, we employed siRNA for the transient knockdown of MK2 in THP‐1 monocyte‐ differentiated macrophages. […] M2 macrophages play a pivotal role in promoting tumor angiogenesis through the secretion of critical factors like VEGF, which facilitate tumor neovascularization.[17] […] These findings further validate the significance of MK2 in the M2 polarization of macrophages and illustrate how compound 11, by targeting MK2, suppresses the pro‐tumorigenic phenotype of macrophages.
(§4) Total RNA was extracted from cultured cells using the EZ‐press RNA Purification Kit (EZBioscience). Complementary DNA was synthesized using the ABScript III RT Master Mix for qPCR with gDNA remover (ABclonal Technology) and was quantified with primers listed in Table S5. The relative mRNA expression levels were quantified through qPCR using the SYBR green gene expression assay (ABclonal Technology).
(§5) Figure S3 Inhibition of pro-tumorigenic M2-like polarization in macrophages by compound 11. (A) Illustrates the treatment effects on various macrophage cells using Western blot analysis post IL-4/IL-13 exposure (30 minutes or the specified time period). (B) Examines CD206 expression in RAW264.7 cells via flow cytometry post 48hours treatment of compound 11 and IL-4/IL-13. […] IL-4/IL-13 (20 ng/mL) served as the stimulation control, while untreated cells were the baseline control. […]

[6] = system: VEGF mRNA in bone marrow-derived macrophages (BMDMs); assay: RT-PCR of VEGF in IL-4/IL-13 stimulated BMDMs; assay type: cell-based, mouse; details: IL-4/IL-13, 12 h
Text: as §3, §4, §5

[7] = Cell viability assay (CCK-8), THP-1; assay type: cell-based; details: THP-1 cells (monocyte), THP-1, human monocyte, read-out: IC50 (μM) mean ± SD, cytotoxicity
Protocol: (§6) In cellular experiments, cells are seeded into either 6-well or 96-well plates and incubated overnight, proceeding with treatments as described in the figure legends or methods section. The cell inoculation numbers are outlined as follows: For assays measuring cell viability, between 3,000 to 5,000 cells are seeded per well in 96-well plates. For other cellular assays, the seeding density ranges from 5×10^5 to 1×10^6 cells per well in 6-well plates.
(§7) Cells was plated into 96-well plates and incubated overnight prior to introduction of varying concentrations of compounds or control solvent. Following a 72-hour exposure period, cell viability was determined using a Cell Counting Kit-8 assay (Life-iLab, China). Dose-response curves were fitted using a four-parameter method facilitated by SoftMax Pro, which was subsequently used for the computation of IC50 values.

[8] = Cell viability assay (CCK-8), H1437; assay type: cell-based; details: H1437 cells (non-small cell lung carcinoma), H1437, human non-small cell lung carcinoma, read-out: IC50 (μM) mean ± SD, cytotoxicity
Protocol: as §6, §7

T1 sequence (P22455 22-802): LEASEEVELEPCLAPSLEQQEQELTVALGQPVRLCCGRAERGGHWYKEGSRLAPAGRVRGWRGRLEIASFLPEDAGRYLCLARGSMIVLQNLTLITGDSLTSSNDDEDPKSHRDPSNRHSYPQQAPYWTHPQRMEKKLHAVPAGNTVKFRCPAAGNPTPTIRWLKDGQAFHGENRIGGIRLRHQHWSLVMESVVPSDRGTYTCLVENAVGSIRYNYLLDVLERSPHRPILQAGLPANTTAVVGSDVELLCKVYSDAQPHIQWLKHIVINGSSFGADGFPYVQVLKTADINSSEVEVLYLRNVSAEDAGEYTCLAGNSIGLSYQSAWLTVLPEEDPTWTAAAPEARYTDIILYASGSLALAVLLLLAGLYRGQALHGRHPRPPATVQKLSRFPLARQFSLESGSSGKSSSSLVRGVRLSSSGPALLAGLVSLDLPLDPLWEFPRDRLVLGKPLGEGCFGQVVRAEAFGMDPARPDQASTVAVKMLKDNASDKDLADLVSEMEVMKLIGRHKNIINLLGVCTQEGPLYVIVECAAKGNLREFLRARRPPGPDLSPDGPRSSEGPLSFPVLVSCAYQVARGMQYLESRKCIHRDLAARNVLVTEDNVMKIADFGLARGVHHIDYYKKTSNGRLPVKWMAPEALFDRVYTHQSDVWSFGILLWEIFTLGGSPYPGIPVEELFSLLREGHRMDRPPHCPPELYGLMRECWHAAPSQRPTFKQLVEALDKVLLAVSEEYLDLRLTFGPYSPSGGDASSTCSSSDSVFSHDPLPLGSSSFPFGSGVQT

C=CC(=O)Nc1cc(-c2cc(-c3cc4c([nH]3)CCNC4=O)ccn2)ccc1OC(F)(F)F [compound 11]
IC50 (FGFR4): > 1000 nM
inhibition at 0.01 µM (FGFR4; FGFR4(h), 10 nM, read-out: Inhibition rate): 0%
inhibition at 0.1 µM (FGFR4; FGFR4(h), 100 nM, read-out: Inhibition rate): -5%
inhibition at 1 µM (FGFR4; FGFR4(h), 1000 nM, read-out: Inhibition rate): -1%
inhibition at 0.01 µM (p38 [1]; 10 nM): -3%
inhibition at 0.1 µM (p38 [1]; 100 nM): -6%
inhibition at 1 µM (p38 [1]; 1000 nM): 8%
inhibition at 0.01 µM (p38 [2]; 10 nM): 5%
inhibition at 0.1 µM (p38 [2]; 100 nM): 2%
inhibition at 1 µM (p38 [2]; 1000 nM): 20%
inhibition at 0.01 µM (p38 [3]; 10 nM): -7%
inhibition at 0.1 µM (p38 [3]; 100 nM): -11%
inhibition at 1 µM (p38 [3]; 1000 nM): -4%
IC50 (p38 [4]): > 1000 nM
inhibition at 1 µM (p38 [4]; 1 µM, read-out: inhibition rate on p38 kinase): < 10%
inhibition at 0.01 µM (p38 [4]; p38-alpha/SAPK2a(h), 10 nM, read-out: Inhibition rate): 0%
inhibition at 0.1 µM (p38 [4]; p38-alpha/SAPK2a(h), 100 nM, read-out: Inhibition rate): -3%
inhibition at 1 µM (p38 [4]; p38-alpha/SAPK2a(h), 1000 nM, read-out: Inhibition rate): -5%
selectivity for MK2 over p38 (p38 [5]): over 434 fold
effect on relative mRNA level of VEGF (VEGF mRNA in THP-1 cells): inhibited
effect on relative mRNA level of VEGF [6]: inhibited
IC50 at 72 h [7]: 34.7 ± 0.4 µM
IC50 at 72 h [8]: 33.4 ± 0.6 µM

From publication PMC11233931, “Remodeling tumor‐associated macrophage for anti‐cancer effects by rational design of irreversible inhibition of mitogen‐activated protein kinase‐activated protein kinase 2” (MedComm, 2024)
